# Measurements from US20200079819A1, “Use of a Vaccine Targeting a Cryptic Tert Epitope, for Treating Lung Cancer in a HLA-A*0201-Positive Never-Smoker or Light-Former Smoker Patient” (Vaxon Biotech, priority 2017, published 2020).
# Where “and” joins values, the source holds several entries; their conditions need not be identical. Equal values may be shown once. No end group written: not given here.
# System: HLA-A*0201 positive patients with NSCLC expressing TERT
# Assay: Vx-001-201 randomized double blind phase IIb clinical trial (OS, TTF, 12 months survival)
# Assay type: in vivo, human
# Text: The Vx-001-201 study is a randomized, double blind multicenter study done in 70 centers in France, Germany, Spain, Italy, Greece, Poland, Romania and Czech Republic. Key eligibility criteria were a) non small cell lung cancer (NSCLC), b) stage IV or recurrent stage I-III, c) disease control after platinum based first line chemotherapy according to RECIST 1.1 criteria, d) HLA-A*0201 positivity, e) tumors expressing TElomerase Reverse Transcriptase (TERT), f) ECOG 0 or 1 g) absence of brain metastasis.
# a) Principal endpoint: overall survival (OS) measured from randomization
# b) Secondary endpoints: • Time to Treatment Failure (TTF) measured from randomization • OS at 12 months
# Patients who fulfilled all inclusion criteria were randomized within 4 weeks after the end of first line chemotherapy.
# The vaccination protocol consisted in six vaccinations at three weeks interval. The optimized Vx-001/TERT572Y was used in the first two vaccinations and the native Vx-001/TERT572 in the following four vaccinations. Patients who continued controlling their disease after the sixth vaccination received boost vaccination with the Vx-001/TERT572 every three months. Vaccination was stopped at disease progression (FIG. 1).
# The primary and secondary endpoints were analysed in the Full Analysis Set composed of all patients who fulfilled the […] five main criteria a) NSCLC, b) stage IV or recurrent stage I-III, and c) disease control after first line chemotherapy, d) HLA-A*0201 positivity and e) TERT expressing tumors.
# We used the Kaplan-Meier method to estimate OS and TTF in each arm and a Cox proportional hazards regression model to estimate Hazard Ratio (HR) relating OS and TTF to the treatment effect.
# [1] = FAS patients, all, Vx-001 vs placebo
# [2] = FAS, 1st line chemotherapy CARBO (n = 119), Vx-001 arm
# [3] = FAS, 1st line chemotherapy CDDP (n = 69), Vx-001 arm
# [4] = FAS, Current smoker (n = 50), including light-smoker (≤25 years) (n = 5), Vx-001 arm
# [5] = FAS, Female (n = 59), Vx-001 arm
# [6] = FAS, Male (n = 131), Vx-001 arm
# [7] = FAS, NS + Former smokers (<30 years)(n = 61), Vx-001 arm
# [8] = FAS, NS + Former smokers (≤20 years)(n = 47), Vx-001 arm
# [9] = FAS, Never smokers (NS) (n = 25), Vx-001 arm
# [10] = FAS, age <65 years (n = 92), Vx-001 arm
# [11] = FAS, age >65 years (n = 98), Vx-001 arm
# [12] = FAS, response to chemotherapy OR (n = 87), Vx-001 arm
# [13] = FAS, response to chemotherapy SD (n = 103), Vx-001 arm
# [14] = FAS, sub-group NSQ (n = 118), Vx-001 arm
# [15] = FAS, sub-group SQ (n = 72), Vx-001 arm
# [16] = NS + Former smokers (≤25 years), all (n = 55), Vx-001 arm
# [17] = never-smokers and light-smokers (≤25 years, stopped or not), <65 y (n = 28), Vx-001 arm
# [18] = never-smokers and light-smokers (≤25 years, stopped or not), >65 y (n = 32), Vx-001 arm
# [19] = never-smokers and light-smokers (≤25 years, stopped or not), All (n = 60), Vx-001 arm
# [20] = never-smokers and light-smokers (≤25 years, stopped or not), ECOG 0 (n = 28), Vx-001 arm
# [21] = never-smokers and light-smokers (≤25 years, stopped or not), ECOG 1 (n = 32), Vx-001 arm
# [22] = never-smokers and light-smokers (≤25 years, stopped or not), Female (n = 25), Vx-001 arm
# [23] = never-smokers and light-smokers (≤25 years, stopped or not), Male (n = 35), Vx-001 arm
# [24] = never-smokers and light-smokers (≤25 years, stopped or not), NSQ (n = 46), Vx-001 arm
substance,measurement,setting,value
"Vx-001: vaccine composed of two nine-amino-acid peptides, TERT572 (SEQ ID No: 1) and TERT572Y (SEQ ID No: 2), administered separately with adjuvant Montanide ISA51 VG (chain 1 RLFFYRKSV; chain 2 YLFFYRKSV; not fully specified)",12 months survival,"FAS patients, all, Vx-001 arm",58%
same,OS (median),"FAS patients, all, Vx-001 arm",14.3 months
same,TTF (median),"FAS patients, all, Vx-001 arm",3.6 months
same,HR (OS),[1],0.97
same,HR (TTF),[1],0.88
same,12 months OS (%),[2],58.2%
same,Median survival (months),[2],14.3 months
same,HR (OS),"FAS, 1st line chemotherapy CARBO (n = 119), Vx-001 vs placebo",1.06
same,12 months OS (%),[3],59%
same,Median survival (months),[3],15 months
same,HR (OS),"FAS, 1st line chemotherapy CDDP (n = 69), Vx-001 vs placebo",0.81
same,12 months OS (%),[4],37.5%
same,Median survival (months),[4],9 months
same,HR (OS),"FAS, Current smoker (n = 50), including light-smoker (≤25 years) (n = 5), Vx-001 vs placebo",1.39
same,12 months OS (%),[5],53.3%
same,Median survival (months),[5],13.2 months
same,HR (OS),"FAS, Female (n = 59), Vx-001 vs placebo",1.52
same,12 months OS (%),[6],61%
same,Median survival (months),[6],15 months
same,HR (OS),"FAS, Male (n = 131), Vx-001 vs placebo",0.81
same,12 months OS (%),[7],69%
same,Median survival (months),[7],16.2 months
same,HR (OS),"FAS, NS + Former smokers (<30 years)(n = 61), Vx-001 vs placebo",0.67
same,12 months OS (%),[8],72.7%
same,Median survival (months),[8],15.3 months
same,HR (OS),"FAS, NS + Former smokers (≤20 years)(n = 47), Vx-001 vs placebo",0.67
same,12 months OS (%),[9],70%
same,Median survival (months),[9],14.1 months
same,HR (OS),"FAS, Never smokers (NS) (n = 25), Vx-001 vs placebo",0.76
same,12 months OS (%),[10],57.7%
same,Median survival (months),[10],13.4 months
same,HR (OS),"FAS, age <65 years (n = 92), Vx-001 vs placebo",1.2
same,12 months OS (%),[11],59%
same,Median survival (months),[11],15 months
same,HR (OS),"FAS, age >65 years (n = 98), Vx-001 vs placebo",0.78
same,12 months OS (%),[12],69%
same,Median survival (months),[12],15.3 months
same,HR (OS),"FAS, response to chemotherapy OR (n = 87), Vx-001 vs placebo",0.89
same,12 months OS (%),[13],52%
same,Median survival (months),[13],14.3 months
same,HR (OS),"FAS, response to chemotherapy SD (n = 103), Vx-001 vs placebo",0.99
same,12 months OS (%),[14],55%
same,Median survival (months),[14],13.4 months
same,HR (OS),"FAS, sub-group NSQ (n = 118), Vx-001 vs placebo",0.88
same,12 months OS (%),[15],64%
same,Median survival (months),[15],14.3 months
same,HR (OS),"FAS, sub-group SQ (n = 72), Vx-001 vs placebo",1.13
same,12 months OS (%),[16],73% and 73.1%
same,Median survival (months),[16],16.2 months
same,12 months OS,[17],76.9%
same,OS (months),[17],20.2 months
same,HR (OS),"never-smokers and light-smokers (≤25 years, stopped or not), <65 y (n = 28), Vx-001 vs placebo",0.50
same,12 months OS,[18],64.3%
same,OS (months),[18],15.3 months
same,HR (OS),"never-smokers and light-smokers (≤25 years, stopped or not), >65 y (n = 32), Vx-001 vs placebo",0.62
same,12 months OS,[19],70.4%
same,OS (months),[19],20.2 months
same,HR (OS),"never-smokers and light-smokers (≤25 years, stopped or not), All (n = 60), Vx-001 vs placebo",0.55
same,12 months OS,[20],66.7%
same,OS (months),[20],24.7 months
same,HR (OS),"never-smokers and light-smokers (≤25 years, stopped or not), ECOG 0 (n = 28), Vx-001 vs placebo",0.52
same,12 months OS,[21],73.3%
same,OS (months),[21],15.3 months
same,HR (OS),"never-smokers and light-smokers (≤25 years, stopped or not), ECOG 1 (n = 32), Vx-001 vs placebo",0.49
same,12 months OS,[22],61.5%
same,OS (months),[22],15.3 months
same,HR (OS),"never-smokers and light-smokers (≤25 years, stopped or not), Female (n = 25), Vx-001 vs placebo",0.95
same,12 months OS,[23],78.6%
same,OS (months),[23],24.7 months
same,HR (OS),"never-smokers and light-smokers (≤25 years, stopped or not), Male (n = 35), Vx-001 vs placebo",0.34
same,12 months OS,[24],70.0%
same,OS (months),[24],20.2 months
same,HR (OS),"never-smokers and light-smokers (≤25 years, stopped or not), NSQ (n = 46), Vx-001 vs placebo",0.50
same,12 months OS,"never-smokers and light-smokers (≤25 years, stopped or not), SQ (n = 14), Vx-001 arm",71.4%
